From patent publication US7456293B2, “Substituted carboxylic acid derivatives for the treatment of diabetes and lipid disorders, their preparation and use” (SK Holding Co., Ltd, priority 2005, dated 2008)
pEC50: −log10 of the molar value. Marks after values point to notes of the source that are not given here. Blank lines part the entries; values can stand above or below the compound they belong to.

Tests used:
db/db mice [1] = assay: Efficacy test for blood glucose and plasma lipid lowering (db/db mice); type: in vivo; conditions: male db/db mice, oral; for Insulin % max reduction d7: day 7, vs vehicle; for BG % max reduction d14 / Fatty Acid % max reduction d14 / TG % max reduction d14 / Insulin % max reduction d14: day 14, vs vehicle
Description: Mice used in this study were standard model of type II diabetes developed by Jackson Laboratories (Bar Harbor, Me.). Mice (male, 8-wk-old db/db) were housed six per cage in hanging wire bottom cages with standard laboratory conditions. The mice had free access to normal chow (Purina Rodent Chow) and water. At the age of 8-10 weeks, the mice were bled from the tail for glucose matching among the groups (n=6 per group). To test the PPAR-γ effect of the compounds of Examples 1, 2, 3, 4 and 6, mice were then dosed orally with vehicle (CMC) or with two different concentrations (3 or 10 mg/kg/d) of each compound for 7-14 days. Each compound of Examples 1, 2, 3, 4 and 6 was dosed as suspension in 0.5% CMC+0.2% Tween 80 in sterile water. Fresh suspension was prepared for 8 days dosing and kept in a refrigerator. The suspension was administered orally by gavage daily in the morning. The control group received vehicle (dose 10 mL/kg). Blood glucose concentrations (in fed state) were monitored at basal and 3 h post dose on day 14 either by putting a drop of blood from tails on a glucose strip for analysis by a glucometer or using a 10 μL plasma sample in a YSI (Yellow Spring Instruments, OH) analyzer. […] The results are expressed in Table 2 as % maximal reduction that is achieved relative to vehicle treated control group. Animals having more than 300 mg/dL of blood glucose were used for testing. Statistical significance (* P<0.05; ** P<0.01) is given versus the appropriate sample in vehicle treated animals.

3T3-L1 adipocytes = assay: Insulin-stimulated glucose uptake (2-deoxy-D-glucose) in differentiated 3T3-L1 adipocytes; type: cell-based
Description: Adipocyte differentiation was then induced using standard protocol. […] The maintenance medium was changed every 3 days until the cells were utilized for experimentation. […] In each instance, the medium was changed twice a day. […]

hPPAR-δ = molecular target: T1, hPPAR-δ (Homo sapiens, UniProt Q03181); assay: In vitro hPPAR-δ transactivation (GAL4 fusion, SPRAT cells, luciferase); type: cell-based; conditions: for pEC50: 6 hours, read-out: PPAR-δ EC50; for PPAR-δ % Max: relative to TTA = 100
T1 construct: expressed in transfected cells
T1 sequence (Q03181 211-439 limits assumed): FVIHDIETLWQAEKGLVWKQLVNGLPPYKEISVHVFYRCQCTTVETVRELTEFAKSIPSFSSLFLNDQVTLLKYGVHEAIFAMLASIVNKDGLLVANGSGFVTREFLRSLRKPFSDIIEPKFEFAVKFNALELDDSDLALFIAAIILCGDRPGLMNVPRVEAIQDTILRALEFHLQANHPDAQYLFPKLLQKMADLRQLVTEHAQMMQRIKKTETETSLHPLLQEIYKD

[2] = test system: human ApoA1 transgenic mice; assay: Changes in plasma ApoA1, HDL cholesterol and TG levels (human ApoA1 transgenic mice); type: in vivo; conditions: for ApoA1 % increase / HDL Cholesterol % increase / TG % decrease: oral, 8 days
Procedure: Homozygous human ApoA1 transgenic mouse strains (C57BL/6-TgN1Rub) were purchased from Jackson Laboratories (Bar Harbor, Me.). The mice were grouped by six and housed in hanging wire bottom cages with standard laboratory conditions. The mice had free access to normal chow (Purina Rodent Chow) and water. The grouped mice were then dosed orally with vehicle (CMC) or with different concentrations of the compound of Example 1 (3, 10 or 30 mg/kg/d) for 8 days. Compounds were dosed as suspension in 0.5% CMC+0.2% Tween 80 in sterile water. Fresh suspension was prepared for 8 days dosing and kept in a refrigerator. The suspension was administered orally by gavage daily in the morning. The control group received vehicle (dose 10 mL/kg). Blood samples were collected by cardiac puncture, centrifuged and analyzed for ApoA1, HDL cholesterol, and triglyceride.

hPPAR-γ = molecular target: T2, hPPAR-γ (Homo sapiens, UniProt P37231); assay: In vitro hPPAR-γ transactivation (GAL4 fusion, SPRAT cells, luciferase); type: cell-based
T2 construct: expressed in transfected cells
T2 sequence (P37231 238-503 limits assumed): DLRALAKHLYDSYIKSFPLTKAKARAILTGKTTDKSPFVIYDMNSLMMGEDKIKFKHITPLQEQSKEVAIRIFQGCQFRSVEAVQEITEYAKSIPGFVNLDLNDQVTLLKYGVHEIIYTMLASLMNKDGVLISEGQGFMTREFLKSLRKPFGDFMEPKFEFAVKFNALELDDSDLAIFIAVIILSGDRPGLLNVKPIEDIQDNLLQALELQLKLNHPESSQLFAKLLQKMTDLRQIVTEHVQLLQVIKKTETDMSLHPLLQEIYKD

[3] = test system: high cholesterol-fed rats; assay: Changes in plasma lipid parameters (high cholesterol-fed rats); type: in vivo; conditions: 10 mg/kg
Procedure: Blood was collected and analyzed for non-fasted total cholesterol and free fatty acid levels. The results are calculated as the percent reduction relative to vehicle control.

hPPAR-α = molecular target: T3, hPPAR-α (Homo sapiens, UniProt Q07869); assay: In vitro hPPAR-α transactivation (GAL4 fusion, SPRAT cells, luciferase); type: cell-based
T3 construct: expressed in transfected cells
T3 sequence (Q07869 239-466 limits assumed): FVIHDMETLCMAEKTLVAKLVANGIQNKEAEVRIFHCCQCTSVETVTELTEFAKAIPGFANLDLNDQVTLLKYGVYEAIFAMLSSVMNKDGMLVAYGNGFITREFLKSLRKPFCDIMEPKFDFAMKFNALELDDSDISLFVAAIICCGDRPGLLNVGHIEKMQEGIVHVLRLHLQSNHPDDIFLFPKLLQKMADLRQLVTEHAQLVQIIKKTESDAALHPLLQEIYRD

db/db mice [4] = assay: Oral glucose tolerance test (OGTT) in db/db mice; type: in vivo
Procedure: OGTT was performed in db/db mice after dosing of either 3 or 10 mg/kg of the compound of Example 1 for 9 days. The animals were dosed with 10% glucose in water in a volume of 10 mL/kg. Blood samples were taken at 0, 30, 60 and 120 min post dose.

[5] = oral, 4 days, vs vehicle control

Structure (SMILES): CCO[C@@H](Cc1ccc(OCCn2c(C(F)(F)F)nc3ccccc32)cc1)C(=O)O [Example 6, (2S)-3-{4-[2-(2-trifluoromethyl-benzoimidazol-1-yl)-ethoxy]-phenyl}-2-ethoxy-propionic acid]
Insulin % max reduction d7 (db/db mice [1]; 3 mg/kg): 87** (d7) %
BG % max reduction d14 (db/db mice [1]; 3 mg/kg): 53** %
Fatty Acid % max reduction d14 (db/db mice [1]; 3 mg/kg): 54** %
TG % max reduction d14 (db/db mice [1]; 3 mg/kg): 62** %
Insulin % max reduction d7 (db/db mice [1]; 10 mg/kg): 86** (d7) %
BG % max reduction d14 (db/db mice [1]; 10 mg/kg): 73** %
Fatty Acid % max reduction d14 (db/db mice [1]; 10 mg/kg): 60** %
TG % max reduction d14 (db/db mice [1]; 10 mg/kg): 66** %
insulin-stimulated glucose uptake, enantio-dependency (3T3-L1 adipocytes; each enantiomer vs racemate, FIG. 2): statistically significant difference (P<0.01) over racemate

pEC50 (hPPAR-δ): 4.42
PPAR-δ % Max (hPPAR-δ): 100%
Structure (SMILES): CCCCCCCCCCCCCCSCC(=O)O [TTA (δ), reference compound]

Structure (SMILES): CCOC(Cc1ccc(OCCn2c(C(F)(F)C(F)(F)F)nc3ccccc32)cc1)C(=O)O (stereo not drawn) [Example 2, 2-ethoxy-3-(4-{2-[2-(pentafluoroethyl)-1H-benzimidazol-1-yl]ethoxy}phenyl)propanoic acid]
BG % max reduction d14 (db/db mice [1]; 3 mg/kg): 57** %
Fatty Acid % max reduction d14 (db/db mice [1]; 3 mg/kg): 45** %
Insulin % max reduction d14 (db/db mice [1]; 3 mg/kg): 59** (d14) %
TG % max reduction d14 (db/db mice [1]; 3 mg/kg): 50** %
BG % max reduction d14 (db/db mice [1]; 10 mg/kg): 75** %
Fatty Acid % max reduction d14 (db/db mice [1]; 10 mg/kg): 71** %
Insulin % max reduction d14 (db/db mice [1]; 10 mg/kg): 75** (d14) %
TG % max reduction d14 (db/db mice [1]; 10 mg/kg): 70** %

Structure (SMILES): CCOC(Cc1ccc(OCCn2c(C(F)(F)F)nc3cc(F)ccc32)cc1)C(=O)O (stereo not drawn) [Example 4, 3-(4-{2-[5-fluoro-2-(trifluoromethyl)-1H-benzimidazol-1-yl]ethoxy}phenyl)-2-ethoxypropanoic acid]
BG % max reduction d14 (db/db mice [1]; 3 mg/kg): 68** %
Fatty Acid % max reduction d14 (db/db mice [1]; 3 mg/kg): 25** %
Insulin % max reduction d14 (db/db mice [1]; 3 mg/kg): 79** (d14) %
TG % max reduction d14 (db/db mice [1]; 3 mg/kg): 64** %
BG % max reduction d14 (db/db mice [1]; 10 mg/kg): 73** %
Fatty Acid % max reduction d14 (db/db mice [1]; 10 mg/kg): 27** %
Insulin % max reduction d14 (db/db mice [1]; 10 mg/kg): 79** (d14) %
TG % max reduction d14 (db/db mice [1]; 10 mg/kg): 58** %

Structure (SMILES): CCOC(Cc1ccc(OCCn2c(C(F)(F)F)nc3cc(C(F)(F)F)ccc32)cc1)C(=O)O (stereo not drawn) [Example 3, 3-(4-{2-[2,5-bis(trifluoromethyl)-1H-benzimidazol-1-yl]ethoxy}phenyl)-2-ethoxypropanoic acid]
BG % max reduction d14 (db/db mice [1]; 3 mg/kg): 77** %
Fatty Acid % max reduction d14 (db/db mice [1]; 3 mg/kg): 49** %
Insulin % max reduction d14 (db/db mice [1]; 3 mg/kg): 76** (d14) %
TG % max reduction d14 (db/db mice [1]; 3 mg/kg): 61** %
BG % max reduction d14 (db/db mice [1]; 10 mg/kg): 77** %
Fatty Acid % max reduction d14 (db/db mice [1]; 10 mg/kg): 76** %
Insulin % max reduction d14 (db/db mice [1]; 10 mg/kg): 79** (d14) %
TG % max reduction d14 (db/db mice [1]; 10 mg/kg): 77** %

pEC50 (hPPAR-γ; 6 hours, read-out: PPAR-γ EC50): 7.40
PPAR-γ % Max (hPPAR-γ; relative to Rosiglitazone = 100): 62%
pEC50 (hPPAR-α; 6 hours, read-out: PPAR-α EC50): 4.76
PPAR-α % Max (hPPAR-α; relative to Reference (α) = 100): 44%
pEC50 (hPPAR-δ): 4.30
PPAR-δ % Max (hPPAR-δ): 68%
Structure (SMILES): CCOC(Cc1ccc(OCCn2c(C(F)(F)F)nc3ccccc32)cc1)C(=O)O (racemic) [Example 1, 2-ethoxy-3-(4-{2-[2-(trifluoromethyl)-1H-benzimidazol-1-yl]ethoxy}phenyl)propanoic acid]
ApoA1 % increase ([2]; 3 mg/kg): 52%
HDL Cholesterol % increase ([2]; 3 mg/kg): 47* %
TG % decrease ([2]; 3 mg/kg): 52* %
ApoA1 % increase ([2]; 10 mg/kg): 137%
HDL Cholesterol % increase ([2]; 10 mg/kg): 73** %
TG % decrease ([2]; 10 mg/kg): 56** %
ApoA1 % increase ([2]; 30 mg/kg): 186%
HDL Cholesterol % increase ([2]; 30 mg/kg): 51** %
TG % decrease ([2]; 30 mg/kg): 67** %
HDL-cholesterol (in words) ([2]; through increase in human ApoA1 levels): greatly increased HDL-cholesterol
Insulin % max reduction d7 (db/db mice [1]; 3 mg/kg): 85** (d7) %
BG % max reduction d14 (db/db mice [1]; 3 mg/kg): 69** %
Fatty Acid % max reduction d14 (db/db mice [1]; 3 mg/kg): 47** %
TG % max reduction d14 (db/db mice [1]; 3 mg/kg): 52** %
Insulin % max reduction d7 (db/db mice [1]; 10 mg/kg): 87** (d7) %
BG % max reduction d14 (db/db mice [1]; 10 mg/kg): 73** %
Fatty Acid % max reduction d14 (db/db mice [1]; 10 mg/kg): 72** %
TG % max reduction d14 (db/db mice [1]; 10 mg/kg): 55** %
plasma total cholesterol and free fatty acid levels (in words) [3]: significantly reduced
Free Fatty Acid % reduction [3, 5]: 68** %
Total Cholesterol % reduction [3, 5]: 69** %
glucose transport activity (3T3-L1 adipocytes; 1 μM compound in the presence of 100 nM insulin, 48 h, FIG. 1): significantly increased
glucose transport (3T3-L1 adipocytes; separate treatment: 1 μM compound alone or 100 nM insulin alone, 48 h, 3T3-L1 adipocytes): increase in glucose transport
AUC for blood glucose, reduction vs vehicle control (db/db mice [4]; 3 mg/kg for 9 days): 49%
AUC for blood glucose, reduction vs vehicle control (db/db mice [4]; 10 mg/kg for 9 days): 48%
